Among the data in patent US8481525B2, “Kinase inhibitors and method of treating cancer with same” (University of Health Network, priority 2009, dated 2013) are IC50, GI50 and inhibition values, retold here.

For one experiment, the target named is T1, human PLK4 (Homo sapiens, UniProt O00444).
T1 construct: amino terminal GST fusion of residues 1-391 of human PLK4; made in house; host or cells: E. coli
T1 sequence (O00444 1-391): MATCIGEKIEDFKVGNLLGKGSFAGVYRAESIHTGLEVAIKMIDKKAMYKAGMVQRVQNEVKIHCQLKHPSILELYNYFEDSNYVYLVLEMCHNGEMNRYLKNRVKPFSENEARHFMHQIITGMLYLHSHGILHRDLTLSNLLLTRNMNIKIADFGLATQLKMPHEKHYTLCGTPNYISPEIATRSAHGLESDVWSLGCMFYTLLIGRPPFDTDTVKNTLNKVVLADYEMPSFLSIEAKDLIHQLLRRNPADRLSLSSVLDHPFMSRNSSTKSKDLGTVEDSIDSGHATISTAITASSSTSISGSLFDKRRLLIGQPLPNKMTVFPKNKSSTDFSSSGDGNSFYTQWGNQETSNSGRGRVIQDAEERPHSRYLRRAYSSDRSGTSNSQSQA
As to the kind of experiment: PLK4 Inhibition Assay (indirect ELISA). The class given is biochemical. The protocol:
The protein was purified from clarified cell extracts after induction at 15° C. overnight using glutathione sepharose, gel permeation chromatography, and ion exchange (Resource Q). The resulting protein was dephosphorylated with lambda phosphatase (NEB cat# P0753), and resolved from the phosphatase using gluthione sepharose. The dephosphorylated GST-PLK4 was stored in aliquots at −80° C. until use.
PLK4 activity was measured using an indirect ELISA detection system. […] The colourimetric reaction was allowed to continue for 5 minutes, followed by addition of stop solution (0.5 N sulphuric acid), and quantified by detection at 450 nm with either a monochromatic or filter based plate reader (Molecular Devices M5 or Beckman DTX880, respectively).
Compounds were pre-incubated in the presence of enzyme for 15 minutes prior to addition of ATP and the activity remaining quantified using the above described activity assay. […] The IC50 value was determined using a non-linear 4 point logistic curve fit (XLfit4, IDBS) with the formula; (A+(B/(1+((x/C){grave over ( )}D)))), where A=background value, B=range, C=inflection point, D=curve fit parameter.
A general note: In an ELISA, binding on a coated surface is turned into a signal by an enzyme label.

Experiment [1] deals with HCC1954 basal breast cancer cell line. Kind of experiment: Cell growth inhibition, Sulforhodamine B assay (SRB). The following applies: Homo sapiens, 5 days culture, SRB. It counts as cell-based. The protocol: (§1) The cells were cultured for 5 days before the Sulforhodamine B assay (SRB) was performed to determine the compound's cell growth inhibition activity.
(§2) Sulforhodamine B (purchased from Sigma, Oakville, ON, Canada) is a water-soluble dye that binds to the basic amino acids of the cellular proteins. Thus, colorimetric measurement of the bound dye provides an estimate of the total protein mass that is related to the cell number. the cells are fixed in situ by gently aspirating off the culture media and adding 50 μl ice cold 10% Trichloroacetic Acid (TCA) per well and incubate at 4° C. for 30-60 min, The plates are washed with water five times and allowed to air dry for 5 min. […] Following staining, plates are washed four times with 1% acetic acid to remove unbound dye and then allowed to air dry for 5 min. […] Absorbance is read at 570 nm.
(§3) The percentage (%) of relative growth inhibition was calculated by comparing to DMSO treated only cells (100%). GI50's were determined for compounds with cytotoxic activity. The GI50 was calculated using GraphPad PRISM software (GraphPad Software, Inc., San Diego, Calif., USA).

In experiment [2] the test system is SW620 colon cancer cell line. Described as above. The class given is cell-based. The following applies: Homo sapiens, SW-620, 120 h, read-out: Cell Line GI50 Range SW-620. The protocol:
as §1, §2, §3

Experiment [3] deals with MCF-7 luminal breast cancer cell line. Described as above. To be noted: Homo sapiens, MCF7, 120 h, read-out: Cell Line GI50 Range MCF-7. It counts as cell-based. How it is done:
as §1, §2, §3

Experiment [4] has as its system MDA-MB-468 basal breast cancer cell line. The experiment is described as above. The class given is cell-based. To be noted: Homo sapiens, 5 days culture, SRB. How it is done:
as §1, §2, §3

For experiment [5], the system named is A549 lung cancer cell line. The experiment is described as above. It counts as cell-based. To be noted: Homo sapiens, read-out: Cell Line GI50 Range A-549. The protocol: as §1, §2, §3
The next experiment addresses T2, Aurora A (Homo sapiens, UniProt O14965).
T2 construct: purchased Invitrogen PV3612
T2 sequence (O14965 1-403): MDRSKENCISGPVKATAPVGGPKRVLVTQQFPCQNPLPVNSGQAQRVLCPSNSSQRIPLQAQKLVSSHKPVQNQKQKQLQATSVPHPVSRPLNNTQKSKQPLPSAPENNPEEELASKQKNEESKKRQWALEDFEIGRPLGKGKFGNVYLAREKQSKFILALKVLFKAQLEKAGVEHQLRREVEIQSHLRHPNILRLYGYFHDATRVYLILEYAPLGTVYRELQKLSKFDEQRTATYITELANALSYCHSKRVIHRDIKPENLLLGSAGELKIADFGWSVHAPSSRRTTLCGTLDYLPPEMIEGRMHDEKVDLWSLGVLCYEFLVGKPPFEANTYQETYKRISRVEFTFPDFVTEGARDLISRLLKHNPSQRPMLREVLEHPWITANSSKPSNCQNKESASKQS
As to the kind of experiment: Aurora A Inhibition Assay (Z-Lyte). It counts as biochemical. The following applies: 1 μM compound; 20 μM ATP; read-out: Aurora A relative inhibition percentage at a dose of 1 μM. How it is done: Aurora A inhibition was determined using the Z-Lyte assay kit from Invitrogen. The assay was performed using the recommended manufacturer's instructions with 20 μM ATP and 12 nM Aurora A (Invitrogen cat # PV3612). The % inhibition values were determined according to the manufacturer's directions and IC50 values were obtained using a non-linear 4 point logistic curve fit (XLfit4, IDBS)

A further experiment addresses T3, Aurora B (Homo sapiens, UniProt Q96GD4).
T3 construct: purchased Invitrogen PV3970
As to the kind of experiment: Aurora B Inhibition Assay (Z-Lyte). The class given is biochemical. The following applies: 128 μM ATP; read-out: Aurora B IC50 Ranges. How it is done:
Aurora B inhibition was determined using the Z-Lyte assay kit from Invitrogen. […] The % inhibition values were determined according to the manufacturer's directions and IC50 values were obtained using a non-linear 4 point logistic curve fit (XLfit4, IDBS)

Where [6] appears, read: 15 μM ATP, read-out: PLK4 IC50 Ranges.
The mark [7] stands for this setting: 120 h, HCC1954 basal breast cancer cell line, read-out: Cell Line GI50 Range HCC-1954.
[8] abbreviates: SW620 colon cancer cell line, 5 days culture, SRB.
Setting [9] is: MCF-7 luminal breast cancer cell line, 5 days culture, SRB.
[10] abbreviates: 120 h, MDA-MB-468 basal breast cancer cell line, read-out: Cell Line GI50 Range MDA-MB-468.
[11] abbreviates: 120 h, A549 lung cancer cell line, 5 days culture, SRB.
Where [12] appears, read: HCC1954, 120 h, read-out: Cell Line GI50 Range HCC-1954, HCC1954 basal breast cancer cell line.
[13] abbreviates: MDA-MB-468, 120 h, read-out: Cell Line GI50 Range MDA-MB-468, MDA-MB-468 basal breast cancer cell line.
Where [14] appears, read: HCC1954, 120 h, HCC1954 basal breast cancer cell line, read-out: Cell Line GI50 Range HCC-1954.

Read-outs that look alike come from different tables or passages of the source.

T3 sequence (Q96GD4 whole entry): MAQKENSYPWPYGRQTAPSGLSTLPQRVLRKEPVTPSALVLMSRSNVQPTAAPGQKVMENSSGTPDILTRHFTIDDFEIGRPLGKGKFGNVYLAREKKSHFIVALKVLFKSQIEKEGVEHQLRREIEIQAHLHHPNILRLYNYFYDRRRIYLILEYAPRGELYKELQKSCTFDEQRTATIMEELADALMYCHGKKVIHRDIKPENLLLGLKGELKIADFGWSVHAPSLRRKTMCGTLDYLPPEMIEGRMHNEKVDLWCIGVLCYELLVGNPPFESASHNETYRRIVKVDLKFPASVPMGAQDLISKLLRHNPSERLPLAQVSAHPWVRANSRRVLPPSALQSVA

The term IC50 denotes the point on the concentration scale where inhibition reaches its midpoint. In general, GI50 refers to the concentration giving 50% growth inhibition. As to `COc1ccc2c(c1)[C@@]1(C[C@@H]1c1ccc3c(-c4cccc(CCO)c4)n[nH]c3c1)C(=O)N2` (racemic) [Example A46, (1R*,2S*)-2-(3-(3-(2-hydroxethyl)phenyl)-1H-indazol-6-yl)-5′-methoxy spiro[cyclopropane-1,3′-indolin]-2′-one], the IC50 on human PLK4 (setting [6]) was < 0.1 µM. Moreover, the GI50 in experiment [1] (setting [7]) was > 10 µM; in experiment [2] (setting [8]), > 10 µM; in experiment [3] (setting [9]), 1 to 10 µM; in experiment [4] (setting [10]) it was 1 to 10 µM; in experiment [5] (setting [11]), 1 to 10 µM.
What is called inhibition is the relative decrease from the control value, in per cent. With `COc1ccc2c(c1)[C@]1(C[C@H]1c1ccc3c(-c4ccc(N5CCNCC5)cc4)n[nH]c3c1)C(=O)N2` [Example A49, (1R,2S)-5′-methoxy-2-(3-(4-(piperazin-1-yl)phenyl)-1H-indazol-6-yl)spiro[cyclopropane-1,3′-indolin]-2′-oneone 2,2,2-trifluoroacetate], at Aurora A, the inhibition at 1 µM is < 50%. Besides, the IC50 on Aurora B and against human PLK4 was < 0.1 µM in each case. The GI50 was 1 to 10 µM in experiment [1] (setting [12]); 1 to 10 µM in experiment [2]; < 0.1 µM in experiment [3]; < 0.1 µM in experiment [4] (setting [13]); < 0.1 µM in experiment [5] (A549, 120 h).
In the case of `COc1ccc2c(c1)[C@]1(C[C@H]1c1ccc3c(/C=C/c4cc(F)c(CN(C)C)c(F)c4)n[nH]c3c1)C(=O)N2` (relative stereo) [Example A215, (1R*,2 S*)-(E)-2-(3-(4-((dimethylamino)methyl)-3,5-difluorostyryl)-1H-indazol-6-yl)-5′-methoxyspiro[cyclopropane-1,3′-indolin]-2′-one 2,2,2-trifluoro acetate], the IC50 on Aurora B and on human PLK4 (setting [6]) was < 0.1 µM throughout.
Turning to `COc1ccc2c(c1)[C@@]1(C[C@@H]1c1ccc3c(-c4ccc(N5CCNCC5)cc4)n[nH]c3c1)C(=O)N2` (racemic) [Example A48, (1R*,2S*)-5′-methoxy-2-(3-(4-(piperazin-1-yl)phenyl)-1H-indazol-6-yl)spiro[cyclopropane-1,3′-indolin]-2′-one 2,2,2-trifluoroacetate], on Aurora A, the inhibition at 1 µM was < 50%. In addition, the IC50 at Aurora B and against human PLK4 was < 0.1 µM throughout. Moreover, the GI50 in experiment [1] (setting [12]) is 1 to 10 µM; in experiment [2], 1 to 10 µM; in experiment [3], < 0.1 µM; in experiment [4] (setting [13]), < 0.1 µM; in experiment [5] (A549, 120 h), < 0.1 µM.
The molecule `O=C1Nc2ccccc2[C@]12C[C@H]2c1ccc2c(I)n[nH]c2c1` (relative stereo) [Example A9, (1R*,2S*)-2-(3-iodo-1H-indazol-6-yl)spiro[cyclopropane-1,3′-indolin]-2′-one] registered an IC50 against human PLK4 of 0.1 to 1 µM.
`COc1ccc2c(c1)[C@@]1(C[C@@H]1c1ccc3c(/C=C/c4csc(CN(C)C)c4)n[nH]c3c1)C(=O)N2` (racemic) [Example A181, (1R*,2S*)-2-(3-((E)-2-(5-((dimethylamino)methyl)thiophen-3-yl)vinyl)-1H-indazol-6-yl)-5′-methoxyspiro[cyclopropane-1,3′-indolin]-2′-one 2,2,2-trifluoro acetate]: the IC50 on Aurora B and at human PLK4 (setting [6]) was < 0.1 µM throughout. Moreover, the 50% growth inhibitory concentration (GI50) in experiment [1] (setting [14]) is 0.1 to 1 µM; in experiment [2] (setting [8]) it was < 0.1 µM; in experiment [3] (setting [9]), < 0.1 µM; in experiment [4] (setting [10]), < 0.1 µM; in experiment [5] (setting [11]), < 0.1 µM.
On to `COc1ccc2c(c1)[C@@]1(C[C@@H]1c1ccc3c(-c4ccc(N5CCC(N(C)C)CC5)cc4)n[nH]c3c1)C(=O)N2` (racemic) [Example A119, (1R*,2S*)-2-(3-(4-(4-(dimethlamino)piperidin-yl)phenyl)-1H-indazol-6-yl)-5′-methoxyspiro[cyclopropane-1,3′-indolin]-2′-one 2,2,2-trifluoroacetate], for which the IC50 on Aurora B and on human PLK4 (setting [6]) was < 0.1 µM in each case. Moreover, the GI50 in experiment [1] (setting [14]) was 0.1 to 1 µM; in experiment [2] (setting [8]) it was < 0.1 µM; in experiment [3] (setting [9]), < 0.1 µM; in experiment [4] (setting [10]), < 0.1 µM; in experiment [5] (setting [11]), < 0.1 µM.
Take `CN1CCN(c2ccc(-c3n[nH]c4cc([C@@H]5C[C@@]56C(=O)Nc5ccc(C(F)(F)F)cc56)ccc34)cc2)CC1` (racemic) [Example A170, (1R*,2S*)-2-(3-(4-(4-methylpiperazin-1-yl)phenyl)-1H-indazol-6-yl)-5′-(trifluoromethyl)spiro[cyclopropane-1,3′-indolin]-2′-one 2,2,2-trifluoroacetate]: on human PLK4 (setting [6]), the IC50 was in the range of 0.1 to 1 µM.
Turning to `COc1ccc2c(c1)[C@@]1(C[C@@H]1c1ccc3c(-c4ccc(N5CCNCC5)nc4)n[nH]c3c1)C(=O)N2` (racemic) [Example A21, 4-(5-(6-((1R*,2S*)-5′-Methoxy-2′-oxospiro[cyclopropane-1,3′-indoline]-2-yl)-1H-indazol-3-yl)pyridinium-2-yl)piperazine bis(2,2,2-trifluoroacetate)], the IC50 at Aurora B and on human PLK4 (setting [6]) was < 0.1 µM each time. The GI50 in experiment [1] (setting [7]) is > 10 µM; in experiment [2] (setting [8]) it was 1 to 10 µM; in experiment [3] (setting [9]) it was < 0.1 µM; in experiment [4] (setting [10]) it was 0.1 to 1 µM; in experiment [5] (setting [11]), 1 to 10 µM.
